Test results as given in patent US5001121A, “Cephalosporin compounds and pharmaceutical compositions thereof” (Mochida Pharmaceutical Co., Ltd., priority 1985, dated 1991).
≈ marks a conversion by molar mass, not a printed value.

Assays:
[1] = tested on: Pseudomonas aeruginosa IFO3445; assay: Antibacterial activity in vitro, agar plate dilution method (MIC); format: cell-based; settings: Mueller Hinton agar, 10^6 cells/ml, 37° C., 20 hours
Procedure: (§1) Antibacterial activity in vitro was determined in accordance with the agar plate dilution method. A platinum loop each of test bacteria (10^6 cells/ml), cultured in Mueller Hinton broth, was inoculated on Mueller Hinton agar plates which contained test compounds at various concentrations. After cultivating at 37° C. for 20 hours, the minimum inhibitory concentration (MIC μg/ml) was determined.

Escherichia coli 67 = assay: as above; format: cell-based; settings: Mueller Hinton agar, 10^6 cells/ml, 37° C., 20 hours
Procedure: as §1

[2] = tested on: Staphylococcus aureus Smith; assay: as above; format: cell-based; settings: Mueller Hinton agar, 10^6 cells/ml, 37° C., 20 hours
Procedure: as §1

[3] = tested on: Klebsiella pneumoniae IFO3317; assay: as above; format: cell-based; settings: Mueller Hinton agar, 10^6 cells/ml, 37° C., 20 hours
Procedure: as §1

Serratia marcescens 274 = assay: Protection ability against systemic infection; format: in vivo, ICR mice; settings: in Mus musculus, iv, 168 h, Table 2-b, i.p. infection, i.v. compound 1 hour later, survival at 1 week, read-out: ED50
Procedure: (§2) Protection ability against systemic infection was determined as follows. An aqueous suspension of test bacteria was intraperitoneally injected into 10 four week old ICR mice. One hour after the infection, test compounds were intravenously administered. The number of surviving mice was counted 1 week after injection to determine the dose at which 50% of the test animals were alive (ED50 :mg/kg).

[4] = tested on: Serratia marcescens IFO3759; assay: Antibacterial activity in vitro, agar plate dilution method (MIC); format: cell-based; settings: Mueller Hinton agar, 10^6 cells/ml, 37° C., 20 hours
Procedure: as §1

LD50, Probit method = settings: in vivo, iv
Procedure: Next, LD50 of representative examples of the compounds of the present invention is shown in Table 3 wherein LD50 was determined in accordance with the Probit method.

[5] = tested on: Staphylococcus aureus 242 (methicillin-resistant strain); assay: Protection ability against systemic infection; format: in vivo, ICR mice; settings: in Mus musculus, iv, 168 h, Table 2-a, i.p. infection, i.v. compound 1 hour later, survival at 1 week, read-out: ED50
Procedure: as §2

Cc1cc(SCC2=C(C(=O)O)N3C(=O)[C@@H](NC(=O)/C(=N\OC(C(=O)O)c4cc(O)c(O)c(O)c4)c4csc(N)n4)[C@H]3SC2)n2nc(C(=O)O)nc2n1 (stereo partly drawn) [Compound 12, (6R,7R)-7-[2-(2-amino-4-thiazolyl)-2-[Z-[carboxy(3,4,5-trihydroxyphenyl)-methyl]oxyimino]acetamido]-3-[(2-carboxy-5-methyl-s-triazolo[l,5-a]pyrimidin-7-yl)thiomethyl]-8-oxo-5-thia-l-azabicyclo [4 2.0]oct-2-ene-2-carboxylic acid]
MIC [1]: 6.25 µg/mL (≈ 8.08 µM) | MIC (Escherichia coli 67): 1.1 µg/mL (≈ 1.42 µM) | MIC [2]: 0.78 µg/mL (≈ 1.01 µM) | MIC [3]: < 0.05 µg/mL

CC(=O)Oc1ccc([C@@H](O/N=C(\C(=O)N[C@@H]2C(=O)N3C(C(=O)O)=C(CSc4cc(C)nc5nc(C(=O)O)nn45)CS[C@H]23)c2csc(N)n2)C(=O)O)cc1OC(C)=O [Compound 8, (6R,7R)-7-[2-(2-amino-4-thiazolyl)-2-[Z-[(R)-carboxy(3,4-diacetoxyphenyl)-methyl]oxyimino]acetamido]-3-[(2-carboxy-5-methyl-s-triazolo[l,5-a]pyrimidin-7-yl)thiomethyl]-8-oxo-5-thia-1-azabicyclo [4.2.0]oct-2-ene-2-carboxyl-acid]
ED50 (Serratia marcescens 274): 10.5 mg/kg | MIC [1]: 3.13 µg/mL (≈ 3.72 µM) | MIC (Escherichia coli 67): 0.2 µg/mL (≈ 0.238 µM) | MIC [4]: 0.1 µg/mL (≈ 0.119 µM) | MIC [3]: < 0.05 µg/mL

Nc1nc(/C(=N/O[C@H](C(=O)O)c2ccc(O)c(O)c2)C(=O)N[C@@H]2C(=O)N3C(C(=O)[O-])=C(C[n+]4ccccc4)CS[C@H]23)cs1 [Compound 15, (6R,7R)-7-[2-(2-amino-4-thiazolyl)-2-[Z-[(S)-carboxy(3,4-dihydroxyphenyl)methyl]oxyimino]acetamido]-3-(pyridiniummethyl)-8-oxo-5-thia-1-azabicyclo[4.2.0]oct-2-ene-2-carboxylate]
LD50 (LD50, Probit method): > 1000 mg/kg | MIC [1]: 0.39 µg/mL (≈ 0.622 µM) | MIC (Escherichia coli 67): 0.1 µg/mL (≈ 0.16 µM) | MIC [2]: 0.78 µg/mL (≈ 1.24 µM) | MIC [4]: 0.1 µg/mL (≈ 0.16 µM) | MIC [3]: < 0.05 µg/mL

Nc1nc(/C(=N/OC(C(=O)O)c2ccc(O)c(O)c2)C(=O)N[C@@H]2C(=O)N3C(C(=O)O)=C(CSc4cc(C(=O)O)c5nnnn5n4)CS[C@H]23)cs1 (stereo partly drawn) [Compound 13, (6R,7R)-7-[2-(2-amino-4-thiazolyl)-2-[Z-[carboxy(3,4-dihydroxyphenyl)methyl]oxyimino]acetamido]-3-[(8-carboxytetrazolo [1,5-b]pyridazin-6-yl)thiomethyl]-8-oxo-5-thia-1-azabicyclo[4.2.0]oct-2-ene-2-carboxylic acid]
LD50 (LD50, Probit method): > 1000 mg/kg | ED50 (Serratia marcescens 274): 1.05 mg/kg | MIC [1]: 0.78 µg/mL (≈ 1.05 µM) | MIC (Escherichia coli 67): 0.2 µg/mL (≈ 0.269 µM) | MIC [2]: 1.56 µg/mL (≈ 2.09 µM) | MIC [4]: 0.2 µg/mL (≈ 0.269 µM) | MIC [3]: < 0.05 µg/mL

Nc1nc(/C(=N/OC(C(=O)O)c2ccc(O)c(O)c2)C(=O)N[C@@H]2C(=O)N3C(C(=O)[O-])=C(C[n+]4ccccc4)CS[C@H]23)cs1 (stereo partly drawn) [Compound 14, (6R,7R)-7-[2-(2-amino-4-thiazolyl)-2-[Z-[carboxy(3 4-dihydroxyphenyl)methyl]-oxyimino]acetamido]-3-(pyridiniummethyl)-8-oxo-5-thia-l-azabicyclo[4.2.0]oct-2-ene-2-carboxylate]
MIC [1]: 1.56 µg/mL (≈ 2.49 µM) | MIC (Escherichia coli 67): 0.39 µg/mL (≈ 0.622 µM) | MIC [2]: 0.78 µg/mL (≈ 1.24 µM) | MIC [4]: 0.39 µg/mL (≈ 0.622 µM) | MIC [3]: 0.1 µg/mL (≈ 0.16 µM)

Cc1cc(SCC2=C(C(=O)O)N3C(=O)[C@@H](NC(=O)/C(=N\OC(=O)c4cc(O)c(O)c(O)c4)c4csc(N)n4)[C@H]3SC2)n2nc(C(=O)O)nc2n1 [Compound 1, (6R,7R)-7-[2-(2-amino-4-thiazolyl)-2-[Z-(3,4,5-trihydroxybenzoyl)oxyimino]acetamido]-3-[(2-carboxy-5-methyl-s-triazolo[l,5-a]-pyrimidin-7-yl)thiomethyl]-8-oxo-5-thia-l-azabicyclo [4.2.0]oct-2-ene-2-carboxylic acid]
LD50 (LD50, Probit method): > 1000 mg/kg | MIC [1]: 3.13 µg/mL (≈ 4.21 µM) | MIC (Escherichia coli 67): < 0.05 µg/mL | MIC [2]: 0.78 µg/mL (≈ 1.05 µM) | MIC [4]: < 0.05 µg/mL | MIC [3]: < 0.05 µg/mL

Cc1cc(SCC2=C(C(=O)O)N3C(=O)[C@@H](NC(=O)/C(=N\OC(C)(C)C(=O)c4ccc(O)c(O)c4)c4csc(N)n4)[C@H]3SC2)n2nc(C(=O)O)nc2n1 [Compound 6, (6R,7R)-7-[2-(2-amino-4-thiazolyl)-2-[Z-[1-(3,4-dihydroxybenzoyl)-1-methylethyl]oxyimino]acetamido]-3-[(2-carboxy-5-methyl-s-triazolo-[1,5-a]pyrimidin-7-yl)thiomethyl]-8-oxo-5-thia-1-azabicyclo[4.2.0]oct-2-ene-2-carboxylicacid]
LD50 (LD50, Probit method): > 1000 mg/kg | MIC [1]: 0.78 µg/mL (≈ 1.01 µM) | MIC (Escherichia coli 67): < 0.05 µg/mL | MIC [2]: 6.25 µg/mL (≈ 8.12 µM) | MIC [4]: < 0.05 µg/mL | MIC [3]: < 0.05 µg/mL

Cc1cc(SCC2=C(C(=O)O)N3C(=O)[C@@H](NC(=O)C(NC(=O)c4ccc(O)c(O)c4)c4csc(N)n4)[C@H]3SC2)n2nc(C(=O)O)nc2n1 (stereo partly drawn) [Compound 17, (6R,7R)-7-[2-(2-amino-4-thiazolyl)-2-(3,4-dihydroxybenzoylamino)acetamido]-3-[(2-carboxy-5-methyl-s-triazolo [1,5-a]pyrimidin-7-yl)thiomethyl]-8-oxo-5-thia-1-azabicyclo[4.2.0]oct-2-ene-2-carboxylic acid]
MIC [1]: 1.56 µg/mL (≈ 2.19 µM) | MIC (Escherichia coli 67): < 0.05 µg/mL | MIC [2]: 3.13 µg/mL (≈ 4.39 µM) | MIC [4]: < 0.05 µg/mL | MIC [3]: < 0.05 µg/mL

Cn1nnnc1SCC1=C(C(=O)O)N2C(=O)[C@@H](NC(=O)[C@H](O)c3ccccc3)[C@H]2SC1 [CMD, Cefamandole, reference compound]
ED50 [5]: 31 mg/kg

Nc1nc(/C(=N/O[C@H](C(=O)O)c2ccc(O)c(O)c2)C(=O)N[C@@H]2C(=O)N3C(C(=O)[O-])=C(C[n+]4cccc5c4CCC5)CS[C@H]23)cs1 [Compound 16, (6R,7R)-7-[2-(2-amino-4-thiazolyl)-2-[Z-[(S)-carboxy(3,4-dihydroxyphenyl)methyl]oxyimino]acetamido]-3-(2,3-cyclopentenopyridiniummethyl)-8-oxo-5-thia-1-azabicyclo [4.2.0]oct-2-ene-2-carboxylate]
LD50 (LD50, Probit method): > 1000 mg/kg | MIC [1]: 0.39 µg/mL (≈ 0.585 µM) | MIC (Escherichia coli 67): 0.1 µg/mL (≈ 0.15 µM) | MIC [2]: 0.78 µg/mL (≈ 1.17 µM) | MIC [4]: 0.1 µg/mL (≈ 0.15 µM) | MIC [3]: < 0.05 µg/mL

Cc1cc(=O)n2nc(SCC3=C(C(=O)O)N4C(=O)[C@@H](NC(=O)/C(=N\OC(=O)c5cc(O)c(O)cc5C)c5csc(N)n5)[C@H]4SC3)sc2n1 [Compound 4]
LD50 (LD50, Probit method): > 1000 mg/kg | MIC [1]: 3.13 µg/mL (≈ 4.28 µM) | MIC (Escherichia coli 67): 0.78 µg/mL (≈ 1.07 µM) | MIC [2]: 0.39 µg/mL (≈ 0.534 µM) | MIC [4]: < 0.05 µg/mL | MIC [3]: < 0.05 µg/mL

Cc1cc(SCC2=C(C(=O)O)N3C(=O)[C@@H](NC(=O)/C(=N\O[C@@H](C(=O)O)c4ccc(O)c(O)c4)c4csc(N)n4)[C@H]3SC2)n2nc(C(=O)O)nc2n1 [Compound 10, (6R,7R)-7-[2-(2-amino-4-thiazolyl)-2-[Z-[(R)-carboxy(3,4-dihydroxyphenyl)-methyl]oxyimino]acetamido]-3-[(2-carboxy-5-methyl-s-triazolo[1,5-a]pyrimidin-7-yl)thiomethyl]-8-oxo-5-thia-1-azabicyclo[4.2.0]oct-2-ene-2-carboxylic acid]
ED50 (Serratia marcescens 274): 28.6 mg/kg | MIC [1]: 6.25 µg/mL (≈ 8.25 µM) | MIC (Escherichia coli 67): 0.2 µg/mL (≈ 0.264 µM) | MIC [2]: 0.78 µg/mL (≈ 1.03 µM) | MIC [4]: 0.1 µg/mL (≈ 0.132 µM) | MIC [3]: < 0.05 µg/mL

CC(=O)Oc1cc(C(=O)O)c(CO/N=C(\C(=O)N[C@@H]2C(=O)N3C(C(=O)O)=C(CSc4cc(C)nc5nc(C(=O)O)nn45)CS[C@H]23)c2csc(N)n2)cc1O [Compound 5, (6R,7R)-7-[2-(2-amino-4-thiazolyl)-2-[Z-[(4-acetoxy-2-carboxy-5-hydroxyphenyl)-methyl]oxyimino]acetamido]-3-[(2-carboxy-5-methyl-s-triazolo-[1,5-a]pyrimidin-7-yl)thiomethyl]-8-oxo-5-thia-1-azabicyclo[4.2.0]oct-2-ene-2-carboxylic acid]
MIC [1]: 0.2 µg/mL (≈ 0.25 µM) | MIC (Escherichia coli 67): < 0.05 µg/mL | MIC [2]: 1.56 µg/mL (≈ 1.95 µM) | MIC [4]: < 0.05 µg/mL | MIC [3]: < 0.05 µg/mL

Cc1cc(SCC2=C(C(=O)O)N3C(=O)[C@@H](NC(=O)/C(=N\OC(C)(C(=O)O)c4ccc(O)c(O)c4)c4csc(N)n4)[C@H]3SC2)n2nc(C(=O)O)nc2n1 (stereo partly drawn) [Compound 11, (6R,7R)-7-[2-(2-amino-4-thiazolyl)-2-[Z-[1-carboxy-1-(3,4-dihydroxyphenyl)ethyl]oxyimino]acetamido]-3-[(2-carboxy-5-methyl-s-triazolo[1,5-a]pyrimidin-7-yl)thiomethyl]-8-oxo-5-thia-1-azabicyclo[4.2.0]oct-2-ene-2-carboxylic acid]
MIC [1]: 0.78 µg/mL (≈ 1.01 µM) | MIC (Escherichia coli 67): < 0.05 µg/mL | MIC [2]: 0.78 µg/mL (≈ 1.01 µM) | MIC [4]: 0.2 µg/mL (≈ 0.259 µM) | MIC [3]: < 0.05 µg/mL

CC(=O)Oc1ccc([C@H](O/N=C(\C(=O)N[C@@H]2C(=O)N3C(C(=O)O)=C(CSc4cc(C)nc5nc(C(=O)O)nn45)CS[C@H]23)c2csc(N)n2)C(=O)O)cc1OC(C)=O [Compound 7, (6R,7R)-7-[2-(2-amino-4-thiazolyl)-2-[Z-[(S)-carboxy(3,4-diacetoxyphenyl)methyl]oxyimino]acetamido]-3-[(2-carboxy-5-methyl-s-triazolo-[1,5-a]pyrimidin-7-yl)thiomethyl]-8-oxo-5-thia-1-azabicyclo[4.2.0]oct-2-ene-2-carboxylic acid]
MIC [1]: 1.56 µg/mL (≈ 1.85 µM) | MIC (Escherichia coli 67): 0.2 µg/mL (≈ 0.238 µM) | MIC [4]: 0.1 µg/mL (≈ 0.119 µM) | MIC [3]: < 0.05 µg/mL
